In patent US8753875B2, “Compositions and means for diagnosing microbial infections” (priority 2007, dated 2014):
Where two headings read alike, the source gives them in different places.

Experiments:
Candida spp. = test: Growth on Flexicult plate, susceptibility/resistance to the five antibiotics (FIG. 4, Table A); type: cell-based
Description: (§1) The kit was developed for urine culture in the primary health care setting. It is designed preferably as a nine cm Petri dish divided into six compartments: One larger compartment for quantitative analysis and five smaller compartments for susceptibility testing. The agar in each small compartment contains one of five antimicrobials (for Denmark and Scandinavia preferably: trimethoprim, sulfamethizole, ampicillin, nitrofurantoin and mecillinam (amdinocillin)) at a concentration adjusted to the breakpoint, such that growth in these compartments indicates resistance, and no growth indicates susceptibility. The Petri dish preferably has higher sides, approximately 2.48 cm, than the usual dish, i.e. ca. 1.48 cm. This allows a larger amount, maximum 100 ml, of urine to be poured onto the dish for inoculation.
(§2) Reading the susceptibility of the bacterial growth: Each bacterium (if more than one) is read individually: The growth in each of the antibiotic fields is compared with the growth on the control agar. […] If there is no growth (or substantially less than the control agar), then the bacterium is considered to be susceptible to the antibiotic. […] When nitrofurantoin and mecillinam are used as antibiotics, a few single colonies may be seen of the same type as the bacterium on the control agar: These are not considered to be resistant mutants but “persisters,” i.e. if retested they will appear susceptible. This is commonly seen also by disc diffusion especially for mecillinam.

Citrobacter spp. = test: as above; type: cell-based
Description: as §1, §2

E. coli [1] = test: as above; type: cell-based
Description: as §1, §2

E. faecalis [2] = test: as above; type: cell-based
Description: as §1, §2

E. faecium [3] = test: as above; type: cell-based
Description: as §1, §2

Enterobacter spp = test: as above; type: cell-based
Description: as §1, §2

Klebsiella spp. = test: as above; type: cell-based
Description: as §1, §2

Morganella spp. = test: as above; type: cell-based
Description: as §1, §2

P. aureginosa = test: as above; type: cell-based
Description: as §1, §2

P. vulgaris [4] = test: as above; type: cell-based
Description: as §1, §2

Proteus mirabilis = test: as above; type: cell-based
Description: as §1, §2

S. saprophyticus [5] = test: as above; type: cell-based
Description: as §1, §2

E. coli [6] = test: Growth of E. coli in antibiotic compartments of the platform (FIG. 3); type: cell-based; settings: illustrated E. coli of FIG. 3
Description: The photos show growth of E. coli at different quantities of bacteria/ml urine.

[7] = Stability of the antimicrobial in the semi-solid media; type: physicochemical
Description: Stability of the antimicrobial in the semi-solid media may depend on the pH-value. The pH-value should preferably not exceed certain limits as this will influence the antimicrobial effect. The stability of Ampicillin and Mecillinam has been improved by adjusting the pH-value of the semi-solid media to 6.0.

E. coli [8] = tested on: E. coli; set-up: key: Susceptible = S; Resistant = R; settings: cited from earlier work
Citrobacter = tested on: Citrobacter; set-up: key: Susceptible = S; Resistant = R; settings: cited from earlier work
Klebsiella = tested on: Klebsiella; set-up: key: Susceptible = S; Resistant = R; settings: cited from earlier work
Enterobacter = tested on: Enterobacter; set-up: key: Susceptible = S; Resistant = R; settings: cited from earlier work
P. mirabilis = tested on: P. mirabilis; set-up: key: Susceptible = S; Resistant = R; settings: cited from earlier work
P. vulgaris [9] = tested on: P. vulgaris; set-up: key: Susceptible = S; Resistant = R; settings: cited from earlier work
Morganella = tested on: Morganella; set-up: key: Susceptible = S; Resistant = R; settings: cited from earlier work
S. saprophyticus [10] = tested on: S. saprophyticus; set-up: key: Susceptible = S; Resistant = R; settings: cited from earlier work
E. faecalis [11] = tested on: E. faecalis; set-up: key: Susceptible = S; Resistant = R; settings: cited from earlier work
E. faecium [12] = tested on: E. faecium; set-up: key: Susceptible = S; Resistant = R; settings: cited from earlier work
S. agalactiae = tested on: S. agalactiae; set-up: key: Susceptible = S; Resistant = R; settings: cited from earlier work
Pseud. Aeruginosa = tested on: Pseud. Aeruginosa; set-up: key: Susceptible = S; Resistant = R; settings: cited from earlier work
Candida sp. = tested on: Candida sp.; set-up: key: Susceptible = S; Resistant = R; settings: cited from earlier work
E. coli [13] = settings: cited from earlier work
E. coli [14] = settings: 1142 E. coli outpatient urinary isolates, USA and Canada; cited from earlier work
[15] = tested on: Staphylococcus saprophyticus ATCC 49907; settings: 32 mg/l nitrofurantoin; 10^5 CFU/ml suspension, 18-24 hours at 37° C.

CC1(C)SC2C(NC(=O)C(N)c3ccccc3)C(=O)N2C1C(=O)O (centres unmarked) [Ampicillin, 7-(2-amino-2-phenyl-acetyl)amino-3,3-dimethyl-6-oxo-2-thia-5-azabicyclo[3.2.0]heptane-4-carboxylic acid]
Susceptibility = S or Resistance = R (Candida spp.): R | Susceptibility = S or Resistance = R (Citrobacter spp.): R | Susceptibility = S or Resistance = R (E. coli [1]): R | Susceptibility = S or Resistance = R (E. faecalis [2]): S | Susceptibility = S or Resistance = R (E. faecium [3]): S | Susceptibility = S or Resistance = R (Enterobacter spp): R | Susceptibility = S or Resistance = R (Klebsiella spp.): R | Susceptibility = S or Resistance = R (Morganella spp.): R | Susceptibility = S or Resistance = R (P. aureginosa): R | Susceptibility = S or Resistance = R (P. vulgaris [4]): R/S | Susceptibility = S or Resistance = R (Proteus mirabilis): S | Susceptibility = S or Resistance = R (S. saprophyticus [5]): S | resistant or susceptible (growth in antibiotic compartment) (E. coli [6]): resistant | stability in the semi-solid media [7]: improved | Normal susceptibility/resistance (E. coli [8]): S | Normal susceptibility/resistance (Citrobacter): R | Normal susceptibility/resistance (Klebsiella): R | Normal susceptibility/resistance (Enterobacter): R | Normal susceptibility/resistance (P. mirabilis): S | Normal susceptibility/resistance (P. vulgaris [9]): R | Normal susceptibility/resistance (Morganella): R | Normal susceptibility/resistance (S. saprophyticus [10]): S | Normal susceptibility/resistance (E. faecalis [11]): S | Normal susceptibility/resistance (E. faecium [12]): S | Normal susceptibility/resistance (S. agalactiae): S | Normal susceptibility/resistance (Pseud. Aeruginosa): R | Normal susceptibility/resistance (Candida sp.): R | Antimicrobial resistance of E. coli (resistance in percent) (E. coli [13]; Austria, n 126): 17.5% | Antimicrobial resistance of E. coli (resistance in percent) (E. coli [13]; Belgium, n 137): 30.7% | Antimicrobial resistance of E. coli (resistance in percent) (E. coli [13]; Canada, n 166): 29.5% | Antimicrobial resistance of E. coli (resistance in percent) (E. coli [13]; Denmark, n 85): 22.4% | Antimicrobial resistance of E. coli (resistance in percent) (E. coli [13]; Finland, n 182): 19.8% | Antimicrobial resistance of E. coli (resistance in percent) (E. coli [13]; France, n 199): 27.6% | Antimicrobial resistance of E. coli (resistance in percent) (E. coli [13]; Germany, n 138): 29.0% | Antimicrobial resistance of E. coli (resistance in percent) (E. coli [13]; Greece, n 132): 22.0% | Antimicrobial resistance of E. coli (resistance in percent) (E. coli [13]; Ireland, n 154): 44.8% | Antimicrobial resistance of E. coli (resistance in percent) (E. coli [13]; Luxembourg, n 24): 41.7% | Antimicrobial resistance of E. coli (resistance in percent) (E. coli [13]; Norway, n 168): 23.8% | Antimicrobial resistance of E. coli (resistance in percent) (E. coli [13]; Portugal, n 86): 45.3% | Antimicrobial resistance of E. coli (resistance in percent) (E. coli [13]; Spain, n 191): 53.9% | Antimicrobial resistance of E. coli (resistance in percent) (E. coli [13]; Sweden, n 193): 15.5% | Antimicrobial resistance of E. coli (resistance in percent) (E. coli [13]; Switzerland, n 122): 27.0% | Antimicrobial resistance of E. coli (resistance in percent) (E. coli [13]; The Netherlands, n 195): 28.7% | Antimicrobial resistance of E. coli (resistance in percent) (E. coli [13]; Total, n 2478): 29.8% | Antimicrobial resistance of E. coli (resistance in percent) (E. coli [13]; United Kingdom, n 180): 37.2% | Overall resistance in E. coli (E. coli [14]): 37.7%

O=C1CN(N=Cc2ccc([N+](=O)[O-])o2)C(=O)N1 [Nitrofurantoin, 1-[(5-nitro-2-furyl)methylideneamino]imidazolidine-2,4-dione]
Susceptibility = S or Resistance = R (Candida spp.): R | Susceptibility = S or Resistance = R (Citrobacter spp.): S | Susceptibility = S or Resistance = R (E. coli [1]): S | Susceptibility = S or Resistance = R (E. faecalis [2]): R | Susceptibility = S or Resistance = R (E. faecium [3]): R | Susceptibility = S or Resistance = R (Enterobacter spp): S | Susceptibility = S or Resistance = R (Klebsiella spp.): R | Susceptibility = S or Resistance = R (Morganella spp.): R/S | Susceptibility = S or Resistance = R (P. aureginosa): R | Susceptibility = S or Resistance = R (P. vulgaris [4]): R/S | Susceptibility = S or Resistance = R (Proteus mirabilis): S | Susceptibility = S or Resistance = R (S. saprophyticus [5]): S | resistant or susceptible (growth in antibiotic compartment) (E. coli [6]): susceptible | reduction in the growth of/numbers of colonies formed [15]: at least 4 log CFU/ml | Normal susceptibility/resistance (E. coli [8]): S | Normal susceptibility/resistance (Citrobacter): S | Normal susceptibility/resistance (Klebsiella): S/R | Normal susceptibility/resistance (Enterobacter): S/R | Normal susceptibility/resistance (P. mirabilis): S/R | Normal susceptibility/resistance (P. vulgaris [9]): R | Normal susceptibility/resistance (Morganella): R | Normal susceptibility/resistance (S. saprophyticus [10]): S | Normal susceptibility/resistance (E. faecalis [11]): S | Normal susceptibility/resistance (E. faecium [12]): S | Normal susceptibility/resistance (S. agalactiae): S | Normal susceptibility/resistance (Pseud. Aeruginosa): R | Normal susceptibility/resistance (Candida sp.): R | Antimicrobial resistance of E. coli (resistance in percent) (E. coli [13]; Austria, n 126): 0.8% | Antimicrobial resistance of E. coli (resistance in percent) (E. coli [13]; Belgium, n 137): 0.7% | Antimicrobial resistance of E. coli (resistance in percent) (E. coli [13]; Canada, n 166): 1.2% | Antimicrobial resistance of E. coli (resistance in percent) (E. coli [13]; Denmark, n 85): 1.2% | Antimicrobial resistance of E. coli (resistance in percent) (E. coli [13]; Finland, n 182): 0.5% | Antimicrobial resistance of E. coli (resistance in percent) (E. coli [13]; France, n 199): 1.0% | Antimicrobial resistance of E. coli (resistance in percent) (E. coli [13]; Germany, n 138): 0.7% | Antimicrobial resistance of E. coli (resistance in percent) (E. coli [13]; Greece, n 132): 3.0% | Antimicrobial resistance of E. coli (resistance in percent) (E. coli [13]; Ireland, n 154): 0% | Antimicrobial resistance of E. coli (resistance in percent) (E. coli [13]; Luxembourg, n 24): 4.2% | Antimicrobial resistance of E. coli (resistance in percent) (E. coli [13]; Norway, n 168): 0% | Antimicrobial resistance of E. coli (resistance in percent) (E. coli [13]; Portugal, n 86): 5.8% | Antimicrobial resistance of E. coli (resistance in percent) (E. coli [13]; Spain, n 191): 4.2% | Antimicrobial resistance of E. coli (resistance in percent) (E. coli [13]; Sweden, n 193): 0% | Antimicrobial resistance of E. coli (resistance in percent) (E. coli [13]; Switzerland, n 122): 0.8% | Antimicrobial resistance of E. coli (resistance in percent) (E. coli [13]; The Netherlands, n 195): 1.0% | Antimicrobial resistance of E. coli (resistance in percent) (E. coli [13]; Total, n 2478): 1.2% | Antimicrobial resistance of E. coli (resistance in percent) (E. coli [13]; United Kingdom, n 180): 0% | Overall resistance in E. coli (E. coli [14]): 1.1%
